# Source: patent US20260125382A1, “COMPOUNDS FOR INHIBITING OR DEGRADING CDK2 AND/OR CDK9 AND MEDICINAL USE THEREOF” (KOREA RESEARCH INSTITUTE OF CHEMICAL TECHNOLOGY, priority 2022, published 2026)
# What was measured:
# [1] = target: T1, CDK2/cyclin A (Homo sapiens, UniProt P24941); test: CDK protein inhibition, KINOMEscan (Eurofins), CDK2/cyclin A; format: binding; details: 1 μM
# T1 construct: purchased Eurofins Scientific
# [2] = target: T2, CDK2 (Homo sapiens, UniProt P24941); test: CDK protein degradation activity (Western blotting), CDK2; format: cell-based; details: MDA-MB-231 cells, 16 hours, Western blot
# T2 construct: endogenous in cells; host or cells: MDA-MB-231
# Summary of the method: (§1)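 Breast cancer line MDA-MB-231, 16 h compound treatment (100 nM–10 μM final, three doses). Immunoblot quantification of CDK2/CDK9 versus tubulin, normalized to DMSO control.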
# [3] = target: T3, CDK9 (Homo sapiens, UniProt P50750); test: CDK protein degradation activity (Western blotting), CDK9; format: cell-based; details: MDA-MB-231 cells, 16 hours, Western blot
# T3 construct: endogenous in cells; host or cells: MDA-MB-231
# T3 sequence (P50750 whole entry): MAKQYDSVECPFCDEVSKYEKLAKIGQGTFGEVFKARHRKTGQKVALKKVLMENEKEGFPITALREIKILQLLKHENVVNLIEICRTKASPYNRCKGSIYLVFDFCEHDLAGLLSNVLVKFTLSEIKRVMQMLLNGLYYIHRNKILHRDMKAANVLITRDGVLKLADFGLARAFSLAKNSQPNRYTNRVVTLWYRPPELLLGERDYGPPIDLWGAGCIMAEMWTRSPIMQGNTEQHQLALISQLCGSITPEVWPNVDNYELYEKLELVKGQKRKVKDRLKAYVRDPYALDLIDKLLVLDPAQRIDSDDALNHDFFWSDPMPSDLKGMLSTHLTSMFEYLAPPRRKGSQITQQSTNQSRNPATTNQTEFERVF
# Summary of the method: as §1
Molecule,CDK2/cyclin A inhibition (%) (at concentration of 1 μM) [1],further results
"Cc1cccc(C(=O)NC2CC(n3cnc4c(NC5CCN(C(=O)CCCCCNC(=O)CNc6cccc7c6C(=O)N([C@@H]6CCC(=O)NC6=O)C7=O)CC5)ncnc43)C2)n1 (stereo partly shown) [Compound 1, N-((1r,3r)-3-(6-((1-(6-(2-((2-(2,6-dioxopiperidin-3-yl)-1,3-dioxoisoindolin-4-yl)amino)acetamido)hexanoyl)piperidin-4-yl)amino)-9H-purin-9-yl)cyclobutyl)-6-methylpicolinamide]",77,–
"Cc1cccc(C(=O)NC2CC(n3cnc4c(NCC5CCN(C(=O)CCCCCNC(=O)CNc6cccc7c6C(=O)N([C@@H]6CCC(=O)NC6=O)C7=O)CC5)ncnc43)C2)n1 (stereo partly shown) [Compound 2, N-((1r,3r)-3-(6-(((1-(6-(2-((2-(2,6-dioxopiperidin-3-yl)-1,3-dioxoisoindolin-4-yl)amino)acetamido)hexanoyl)piperidin-4-yl)methyl)amino)-9H-purin-9-yl)cyclobutyl)-6-methylpicolinamide]",84,–
"Cc1cccc(C(=O)NC2CC(n3cnc4c(NC5CCN(C(=O)CCCCCNC(=O)COc6ccc7c(c6)C(=O)N([C@@H]6CCC(=O)NC6=O)C7=O)CC5)ncnc43)C2)n1 (stereo partly shown) [Compound 3, N-((1r,3r)-3-(6-((1-(6-(2-((2-(2,6-dioxopiperidin-3-yl)-1,3-dioxoisoindolin-5-yl)oxy)acetamido)hexanoyl)piperidin-4-yl)amino)-9H-purin-9-yl)cyclobutyl)-6-methylpicolinamide]",84,–
"Cc1cccc(C(=O)NC2CC(n3cnc4c(NC5CCN(C(=O)CCCCCNC(=O)COc6cccc7c6C(=O)N([C@@H]6CCC(=O)NC6=O)C7=O)CC5)ncnc43)C2)n1 (stereo partly shown) [Compound 4, N-((1r,3r)-3-(6-((1-(6-(2-((2-(2,6-dioxopiperidin-3-yl)-1,3-dioxoisoindolin-4-yl)oxy)acetamido)hexanoyl)piperidin-4-yl)amino)-9H-purin-9-yl)cyclobutyl)-6-methylpicolinamide]",84,–
"Cc1cccc(C(=O)NC2CC(n3cnc4c(NC5CCN(C(=O)CCCCCNc6ccc7c(c6)C(=O)N([C@@H]6CCC(=O)NC6=O)C7=O)CC5)ncnc43)C2)n1 (stereo partly shown) [Compound 5, N-((1r,3r)-3-(6-((1-(6-((2-(2,6-dioxopiperidin-3-yl)-1,3-dioxoisoindolin-5-yl)amino)hexanoyl)piperidin-4-yl)amino)-9H-purin-9-yl)cyclobutyl)-6-methylpicolinamide]",91,–
"Cc1cccc(C(=O)NC2CC(n3cnc4c(NC5CCN(C(=O)CCCCCNc6cccc7c6C(=O)N([C@@H]6CCC(=O)NC6=O)C7=O)CC5)ncnc43)C2)n1 (stereo partly shown) [Compound 6, N-((1r,3r)-3-(6-((1-(6-((2-(2,6-dioxopiperidin-3-yl)-1,3-dioxoisoindolin-4-yl)amino)hexanoyl)piperidin-4-yl)amino)-9H-purin-9-yl)cyclobutyl)-6-methylpicolinamide]",88,–
"Cc1cccc(C(=O)NC2CC(n3cnc4c(NC5CCN(C(=O)COCCOCCNC(=O)COc6ccc7c(c6)C(=O)N([C@H]6CCC(=O)NC6=O)C7=O)CC5)ncnc43)C2)n1 (stereo partly shown) [Compound 7, N-((1s,3s)-3-(6-((1-(2-(2-(2-(2-((2-(2,6-dioxopiperidin-3-yl)-1,3-dioxoisoindolin-5-yl)oxy)acetamido)ethoxy)ethoxy)acetyl)piperidin-4-yl)amino)-9H-purin-9-yl)cyclobutyl)-6-methylpicolinamide]",94,–
"Cc1cccc(C(=O)NC2CC(n3cnc4c(NC5CCN(C(=O)COCCOCCNC(=O)COc6cccc7c6C(=O)N([C@H]6CCC(=O)NC6=O)C7=O)CC5)ncnc43)C2)n1 (stereo partly shown) [Compound 8, N-((1s,3s)-3-(6-((1-(2-(2-(2-(2-((2-(2,6-dioxopiperidin-3-yl)-1,3-dioxoisoindolin-4-yl)oxy)acetamido)ethoxy)ethoxy)acetyl)piperidin-4-yl)amino)-9H-purin-9-yl)cyclobutyl)-6-methylpicolinamide]",89,–
"Cc1cccc(C(=O)NC2CC(n3cnc4c(NC5CCN(C(=O)COCCOCCNC(=O)CNc6ccc7c(c6)C(=O)N([C@H]6CCC(=O)NC6=O)C7=O)CC5)ncnc43)C2)n1 (stereo partly shown) [Compound 9, N-((1s,3s)-3-(6-((1-(2-(2-(2-(2-((2-(2,6-dioxopiperidin-3-yl)-1,3-dioxoisoindolin-5-yl)amino)acetamido)ethoxy)ethoxy)acetyl)piperidin-4-yl)amino)-9H-purin-9-yl)cyclobutyl)-6-methylpicolinamide]",92,–
"Cc1cccc(C(=O)NC2CC(n3cnc4c(NC5CCN(C(=O)COCCOCCNC(=O)CNc6cccc7c6C(=O)N([C@H]6CCC(=O)NC6=O)C7=O)CC5)ncnc43)C2)n1 (stereo partly shown) [Compound 10, N-((1s,3s)-3-(6-((1-(2-(2-(2-(2-((2-(2,6-dioxopiperidin-3-yl)-1,3-dioxoisoindolin-4-yl)amino)acetamido)ethoxy)ethoxy)acetyl)piperidin-4-yl)amino)-9H-purin-9-yl)cyclobutyl)-6-methylpicolinamide]",90,–
"Cc1cccc(C(=O)NC2CC(n3cnc4c(NC5CCN(C(=O)COCCOCCNc6ccc7c(c6)C(=O)N([C@H]6CCC(=O)NC6=O)C7=O)CC5)ncnc43)C2)n1 (stereo partly shown) [Compound 11, N-((1s,3s)-3-(6-((1-(2-(2-(2-((2-(2,6-dioxopiperidin-3-yl)-1,3-dioxoisoindolin-5-yl)amino)ethoxy)ethoxy)acetyl)piperidin-4-yl)amino)-9H-purin-9-yl)cyclobutyl)-6-methylpicolinamide]",78,–
"Cc1cccc(C(=O)NC2CC(n3cnc4c(NC5CCN(C(=O)COCCOCCNc6cccc7c6C(=O)N([C@H]6CCC(=O)NC6=O)C7=O)CC5)ncnc43)C2)n1 (stereo partly shown) [Compound 12, N-((1s,3s)-3-(6-((1-(2-(2-(2-((2-(2,6-dioxopiperidin-3-yl)-1,3-dioxoisoindolin-4-yl)amino)ethoxy)ethoxy)acetyl)piperidin-4-yl)amino)-9H-purin-9-yl)cyclobutyl)-6-methylpicolinamide]",86,–
"Cc1cccc(C(=O)NC2CC(n3cnc4c(NCC5CCN(C(=O)CCCCCNC(=O)CNc6cccc7c6C(=O)N([C@@H]6CCC(=O)NC6=O)C7=O)CC5)ncnc43)C2)n1 (stereo partly shown) [Compound 62, N-((1r,3r)-3-(6-(((1-(6-(2-((2-(2,6-dioxopiperidin-3-yl)-1,3-dioxoisoindolin-4-yl)amino)acetamido)hexanoyl)piperidin-4-yl)methyl)amino)-9H-purin-9-yl)cyclobutyl)-6-methylpicolinamide]",89,–
"Cc1cccc(C(=O)NC2CC(n3cnc4c(NCC5CCN(C(=O)CCCCCNC(=O)COc6ccc7c(c6)C(=O)N([C@@H]6CCC(=O)NC6=O)C7=O)CC5)ncnc43)C2)n1 (stereo partly shown) [Compound 63, N-((1r,3r)-3-(6-(((1-(6-(2-((2-(2,6-dioxopiperidin-3-yl)-1,3-dioxoisoindolin-5-yl)oxy)acetamido)hexanoyl)piperidin-4-yl)methyl)amino)-9H-purin-9-yl)cyclobutyl)-6-methylpicolinamide]",83,–
"Cc1cccc(C(=O)NC2CC(n3cnc4c(NCC5CCN(C(=O)CCCCCNC(=O)COc6cccc7c6C(=O)N([C@@H]6CCC(=O)NC6=O)C7=O)CC5)ncnc43)C2)n1 (stereo partly shown) [Compound 64, N-((1r,3r)-3-(6-(((1-(6-(2-((2-(2,6-dioxopiperidin-3-yl)-1,3-dioxoisoindolin-4-yl)oxy)acetamido)hexanoyl)piperidin-4-yl)methyl)amino)-9H-purin-9-yl)cyclobutyl)-6-methylpicolinamide]",85,–
"Cc1cccc(C(=O)NC2CC(n3cnc4c(NCC5CCN(C(=O)CCCCCNc6cccc7c6C(=O)N([C@@H]6CCC(=O)NC6=O)C7=O)CC5)ncnc43)C2)n1 (stereo partly shown) [Compound 66, N-((1r,3r)-3-(6-(((1-(6-((2-(2,6-dioxopiperidin-3-yl)-1,3-dioxoisoindolin-4-yl)amino)hexanoyl)piperidin-4-yl)methyl)amino)-9H-purin-9-yl)cyclobutyl)-6-methylpicolinamide]",78,–
"N-((1s,3s)-3-(6-((4-(4-(3-(4-(1-(2-(2,6-dioxopiperidin-3-yl)-1,3-dioxoisoindolin-5-yl)azetidin-3-carbonyl)piperazin-1-yl)propyl)piperidin-1-yl)phenyl)amino)-9H-purin-9-yl)cyclobutyl)-2-phenylacetamide [Compound 366]",–,Enzyme degradation CDK2 (% remaining) @ 0.1 μM ([2]; 0.1 μM): 20%; Enzyme degradation CDK2 (% remaining) @ 1 μM ([2]; 1 μM): 0%; Enzyme degradation CDK2 (% remaining) @ 10 μM ([2]; 10 μM): 0%; Enzyme degradation CDK9 (% remaining) @ 0.1 μM ([3]; 0.1 μM): 10/10/10%; Enzyme degradation CDK9 (% remaining) @ 1 μM ([3]; 1 μM): 10/10/10%; Enzyme degradation CDK9 (% remaining) @ 10 μM ([3]; 10 μM): 10/10/10%
